Results from US10405547B2, “Substituted cyclic amides as herbicides” (FMC Corporation, priority 2015, dated 2019).

How the values were obtained:
Format in all cases: in vivo
[1] = tested on: barnyardgrass (Echinochloa crus-galli); experiment: Test A preemergence, barnyardgrass; details: 0 to 100 scale (0 no effect, 100 complete control)
Summary of the method: (§1)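 Ratings use a 0–100 scale, where 0 means no effect and 100 means complete control, and come from visual comparison with untreated plants roughly 10 days after treatment. Compounds were applied in a surfactant-containing, non-phytotoxic solvent, either to soil after seeding or to foliage of small seedlings.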

rice (Oryza sativa) = experiment: Test B flooded paddy test, rice; details: applied to paddy water, visual rating after 13 to 15 days, scale 0 (no effect) to 100 (complete control)
Summary of the method: (§2)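 Under a constant 3 cm flood, test compounds went directly into the paddy water. Following 13 to 15 days of greenhouse growth, treated species and controls were compared by eye.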

[2] = tested on: barnyardgrass (Echinochloa crus-galli); experiment: Test B flooded paddy test, barnyardgrass; details: applied to paddy water, visual rating after 13 to 15 days, scale 0 (no effect) to 100 (complete control)
Summary of the method: as §2

kochia (Kochia scoparia) [3] = experiment: Test A postemergence, kochia; details: visual injury, 0 to 100 scale (0 no effect, 100 complete control), approximately 10 days
Summary of the method: as §1

[4] = tested on: barnyardgrass (Echinochloa crus-galli); experiment: Test A postemergence, barnyardgrass; details: visual injury, 0 to 100 scale (0 no effect, 100 complete control), approximately 10 days
Summary of the method: as §1

[5] = tested on: sedge, umbrella (small-flower umbrella sedge, Cyperus difformis); experiment: Test B flooded paddy test, umbrella sedge; details: applied to paddy water, visual rating after 13 to 15 days, scale 0 (no effect) to 100 (complete control)
Summary of the method: as §2

[6] = tested on: foxtail, giant (Setaria faberii); experiment: Test A postemergence, giant foxtail; details: visual injury, 0 to 100 scale (0 no effect, 100 complete control), approximately 10 days
Summary of the method: as §1

[7] = tested on: pigweed (Amaranthus retroflexus); experiment: Test A postemergence, pigweed; details: visual injury, 0 to 100 scale (0 no effect, 100 complete control), approximately 10 days
Summary of the method: as §1

[8] = tested on: wheat (Triticum aestivum); experiment: Test A postemergence, wheat; details: visual injury, 0 to 100 scale (0 no effect, 100 complete control), approximately 10 days
Summary of the method: as §1

[9] = tested on: pigweed (Amaranthus retroflexus); experiment: Test A preemergence, pigweed; details: 0 to 100 scale (0 no effect, 100 complete control)
Summary of the method: as §1

[10] = tested on: ragweed (common ragweed, Ambrosia elatior); experiment: Test A preemergence, ragweed; details: 0 to 100 scale (0 no effect, 100 complete control)
Summary of the method: as §1

kochia (Kochia scoparia) [11] = experiment: Test A preemergence, kochia; details: 0 to 100 scale (0 no effect, 100 complete control)
Summary of the method: as §1

[12] = tested on: ryegrass, Italian (Lolium multiflorum); experiment: Test A preemergence, Italian ryegrass; details: 0 to 100 scale (0 no effect, 100 complete control)
Summary of the method: as §1

[13] = tested on: foxtail, giant (Setaria faberii); experiment: Test A preemergence, giant foxtail; details: 0 to 100 scale (0 no effect, 100 complete control)
Summary of the method: as §1

[14] = tested on: ducksalad (Heteranthera limosa); experiment: Test B flooded paddy test, ducksalad; details: applied to paddy water, visual rating after 13 to 15 days, scale 0 (no effect) to 100 (complete control)
Summary of the method: as §2

[15] = tested on: ragweed (common ragweed, Ambrosia elatior); experiment: Test A postemergence, ragweed; details: visual injury, 0 to 100 scale (0 no effect, 100 complete control), approximately 10 days
Summary of the method: as §1

[16] = tested on: blackgrass (Alopecurus myosuroides); experiment: Test A postemergence, blackgrass; details: visual injury, 0 to 100 scale (0 no effect, 100 complete control), approximately 10 days
Summary of the method: as §1

corn (Zea mays) = experiment: Test A postemergence, corn; details: visual injury, 0 to 100 scale (0 no effect, 100 complete control), approximately 10 days
Summary of the method: as §1

[17] = tested on: ryegrass, Italian (Lolium multiflorum); experiment: Test A postemergence, Italian ryegrass; details: visual injury, 0 to 100 scale (0 no effect, 100 complete control), approximately 10 days
Summary of the method: as §1

[18] = tested on: galium (catchweed bedstraw, Galium aparine); experiment: Test A postemergence, galium; details: visual injury, 0 to 100 scale (0 no effect, 100 complete control), approximately 10 days
Summary of the method: as §1

O=C1NCC(c2cccc(Cn3ccc(C(F)(F)F)n3)c2)C1C(=O)Nc1cccc(F)c1F (stereo not drawn) [Compound 25, N-(2,3-difluorophenyl)-2-oxo-4-[3-[[3-(trifluoromethyl)-1H-pyrazol-1-yl]methyl]phenyl]-3-pyrrolidinecarboxamide]
0: Plant response rating, Barnyardgrass (Flood) ([2]; 500 g ai/ha) | Plant response rating, Kochia (kochia (Kochia scoparia) [3]; 125 g ai/ha) | Plant response rating, Kochia (kochia (Kochia scoparia) [3]; 500 g ai/ha) | Plant response rating, Sedge, Umbrella (Flood) ([5]; 500 g ai/ha) | Plant response rating, Pigweed ([7]; 125 g ai/ha) | Plant response rating, Pigweed ([7]; 500 g ai/ha) | Plant response rating, Wheat ([8]; 125 g ai/ha) | Plant response rating, Wheat ([8]; 500 g ai/ha) | Plant response rating, Pigweed ([9]; 125 g ai/ha) | Plant response rating, Pigweed ([9]; 500 g ai/ha) | Plant response rating, Ragweed ([10]; 125 g ai/ha) | Plant response rating, Ragweed ([10]; 500 g ai/ha) | Plant response rating, Kochia (kochia (Kochia scoparia) [11]; 125 g ai/ha) | Plant response rating, Ryegrass, Italian ([12]; 125 g ai/ha) | Plant response rating, Ryegrass, Italian ([12]; 500 g ai/ha) | Plant response rating, Ragweed ([15]; 125 g ai/ha) | Plant response rating, Ragweed ([15]; 500 g ai/ha) | Plant response rating, Blackgrass ([16]; 125 g ai/ha) | Plant response rating, Blackgrass ([16]; 500 g ai/ha) | Plant response rating, Corn (corn (Zea mays); 125 g ai/ha) | Plant response rating, Corn (corn (Zea mays); 500 g ai/ha) | Plant response rating, Ryegrass, Italian ([17]; 125 g ai/ha) | Plant response rating, Ryegrass, Italian ([17]; 500 g ai/ha) | Plant response rating, Galium ([18]; 125 g ai/ha) | Plant response rating, Galium ([18]; 500 g ai/ha)
15: Plant response rating, Rice (Flood) (rice (Oryza sativa); 500 g ai/ha)
60: Plant response rating, Barnyardgrass ([4]; 500 g ai/ha) | Plant response rating, Foxtail, Giant ([6]; 500 g ai/ha) | Plant response rating, Ducksalad (Flood) ([14]; 500 g ai/ha)
80: Plant response rating, Foxtail, Giant ([13]; 500 g ai/ha)
40: Plant response rating, Barnyardgrass ([1]; 500 g ai/ha)
50: Plant response rating, Foxtail, Giant ([13]; 125 g ai/ha)
20: Plant response rating, Barnyardgrass ([1]; 125 g ai/ha) | Plant response rating, Barnyardgrass ([4]; 125 g ai/ha) | Plant response rating, Foxtail, Giant ([6]; 125 g ai/ha) | Plant response rating, Kochia (kochia (Kochia scoparia) [11]; 500 g ai/ha)

C[Si](C)(C)C#Cc1cccc(C2CNC(=O)C2C(=O)Nc2cccc(F)c2F)c1 (stereo not drawn) [Compound 33]
0: Plant response rating, Rice (Flood) (rice (Oryza sativa); 250 g ai/ha) | Plant response rating, Barnyardgrass (Flood) ([2]; 250 g ai/ha) | Plant response rating, Kochia (kochia (Kochia scoparia) [3]; 125 g ai/ha) | Plant response rating, Barnyardgrass ([4]; 125 g ai/ha) | Plant response rating, Sedge, Umbrella (Flood) ([5]; 250 g ai/ha) | Plant response rating, Foxtail, Giant ([6]; 125 g ai/ha) | Plant response rating, Pigweed ([7]; 125 g ai/ha) | Plant response rating, Pigweed ([7]; 500 g ai/ha) | Plant response rating, Wheat ([8]; 125 g ai/ha) | Plant response rating, Wheat ([8]; 500 g ai/ha) | Plant response rating, Pigweed ([9]; 125 g ai/ha) | Plant response rating, Pigweed ([9]; 500 g ai/ha) | Plant response rating, Ragweed ([10]; 125 g ai/ha) | Plant response rating, Ragweed ([10]; 500 g ai/ha) | Plant response rating, Kochia (kochia (Kochia scoparia) [11]; 125 g ai/ha) | Plant response rating, Kochia (kochia (Kochia scoparia) [11]; 500 g ai/ha) | Plant response rating, Ryegrass, Italian ([12]; 125 g ai/ha) | Plant response rating, Ryegrass, Italian ([12]; 500 g ai/ha) | Plant response rating, Ragweed ([15]; 125 g ai/ha) | Plant response rating, Ragweed ([15]; 500 g ai/ha) | Plant response rating, Blackgrass ([16]; 125 g ai/ha) | Plant response rating, Blackgrass ([16]; 500 g ai/ha) | Plant response rating, Corn (corn (Zea mays); 125 g ai/ha) | Plant response rating, Corn (corn (Zea mays); 500 g ai/ha) | Plant response rating, Ryegrass, Italian ([17]; 125 g ai/ha) | Plant response rating, Ryegrass, Italian ([17]; 500 g ai/ha) | Plant response rating, Galium ([18]; 125 g ai/ha)
50: Plant response rating, Barnyardgrass ([4]; 500 g ai/ha) | Plant response rating, Foxtail, Giant ([6]; 500 g ai/ha) | Plant response rating, Ducksalad (Flood) ([14]; 250 g ai/ha)
80: Plant response rating, Barnyardgrass ([1]; 500 g ai/ha) | Plant response rating, Foxtail, Giant ([13]; 500 g ai/ha)
20: Plant response rating, Galium ([18]; 500 g ai/ha)
60: Plant response rating, Barnyardgrass ([1]; 125 g ai/ha) | Plant response rating, Foxtail, Giant ([13]; 125 g ai/ha)
40: Plant response rating, Kochia (kochia (Kochia scoparia) [3]; 500 g ai/ha)

O=C1NCC(c2cccc(Oc3ccccn3)c2)C1C(=O)Nc1ccccc1F (stereo not drawn) [Compound 34, N-(2-Fluorophenyl)-2-oxo-4-[3-(2-pyridinyloxy)phenyl]-3-pyrrolidinecarboxamide]
50: Plant response rating, Galium ([18]; 500 g ai/ha)
30: Plant response rating, Barnyardgrass ([4]; 125 g ai/ha) | Plant response rating, Foxtail, Giant ([6]; 125 g ai/ha) | Plant response rating, Ryegrass, Italian ([17]; 500 g ai/ha)
0: Plant response rating, Rice (Flood) (rice (Oryza sativa); 500 g ai/ha) | Plant response rating, Kochia (kochia (Kochia scoparia) [3]; 125 g ai/ha) | Plant response rating, Kochia (kochia (Kochia scoparia) [3]; 500 g ai/ha) | Plant response rating, Sedge, Umbrella (Flood) ([5]; 500 g ai/ha) | Plant response rating, Pigweed ([7]; 125 g ai/ha) | Plant response rating, Pigweed ([7]; 500 g ai/ha) | Plant response rating, Wheat ([8]; 125 g ai/ha) | Plant response rating, Wheat ([8]; 500 g ai/ha) | Plant response rating, Pigweed ([9]; 125 g ai/ha) | Plant response rating, Pigweed ([9]; 500 g ai/ha) | Plant response rating, Ragweed ([10]; 125 g ai/ha) | Plant response rating, Ragweed ([10]; 500 g ai/ha) | Plant response rating, Kochia (kochia (Kochia scoparia) [11]; 125 g ai/ha) | Plant response rating, Kochia (kochia (Kochia scoparia) [11]; 500 g ai/ha) | Plant response rating, Ryegrass, Italian ([12]; 125 g ai/ha) | Plant response rating, Ryegrass, Italian ([12]; 500 g ai/ha) | Plant response rating, Ragweed ([15]; 125 g ai/ha) | Plant response rating, Ragweed ([15]; 500 g ai/ha) | Plant response rating, Blackgrass ([16]; 125 g ai/ha) | Plant response rating, Corn (corn (Zea mays); 125 g ai/ha) | Plant response rating, Corn (corn (Zea mays); 500 g ai/ha) | Plant response rating, Ryegrass, Italian ([17]; 125 g ai/ha)
80: Plant response rating, Foxtail, Giant ([6]; 500 g ai/ha)
70: Plant response rating, Foxtail, Giant ([13]; 125 g ai/ha)
85: Plant response rating, Ducksalad (Flood) ([14]; 500 g ai/ha)
90: Plant response rating, Barnyardgrass ([1]; 500 g ai/ha) | Plant response rating, Foxtail, Giant ([13]; 500 g ai/ha)
20: Plant response rating, Barnyardgrass ([1]; 125 g ai/ha) | Plant response rating, Barnyardgrass (Flood) ([2]; 500 g ai/ha) | Plant response rating, Blackgrass ([16]; 500 g ai/ha) | Plant response rating, Galium ([18]; 125 g ai/ha)
60: Plant response rating, Barnyardgrass ([4]; 500 g ai/ha)
